# Experimental data published in patent publication US9290457B2, “Substituted dihydropyrimidinones and their use as inhibitors of neutrophil elastase activity” (Boehringer Ingelheim International GmbH, priority 2014, dated 2016).
# Biological target: neutrophil elastase (Homo sapiens (Human), UniProt P08246)
# Test: Human Neutrophil Elastase Assay
# Type: biochemical
# Settings: substrate MeOSuc-Ala-Ala-Pro-Val-AMC
# neutrophil elastase, sequence (P08246 30-247): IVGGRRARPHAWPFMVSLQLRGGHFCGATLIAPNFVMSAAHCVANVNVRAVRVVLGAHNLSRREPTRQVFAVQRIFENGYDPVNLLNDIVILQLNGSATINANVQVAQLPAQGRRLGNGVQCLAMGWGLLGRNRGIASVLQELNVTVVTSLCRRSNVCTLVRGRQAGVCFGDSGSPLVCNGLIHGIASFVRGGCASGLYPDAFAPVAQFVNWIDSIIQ
row,Compound,IC50 [nM]
1,CCOC(=O)C1=C(C)N(c2cccc(C(F)(F)F)c2)C(=O)N(C)C1c1ccc(C#N)cc1C(=O)N1CCC(N)CC1 (centres unmarked) [Example 4.3],4.8
2,CCOC(=O)C1=C(C)N(c2cccc(C(F)(F)F)c2)C(=O)N(C)C1c1ccc(C#N)cc1C(=O)N1CC2COCC(C1)N2 (centres unmarked) [Example 4.4],11.4
3,CCOC(=O)C1=C(C)N(c2cccc(C(F)(F)F)c2)C(=O)N(C)C1c1ccc(C#N)cc1C(=O)NCCN (centres unmarked) [Example 4.5],< 1
4,CCOC(=O)C1=C(C)N(c2cccc(C(F)(F)F)c2)C(=O)N(C)C1c1ccc(C#N)cc1C(=O)N[C@H]1C[C@H]1N (some centres unmarked) [Example 4.6],< 1
5,CCOC(=O)C1=C(C)N(c2cccc(C(F)(F)F)c2)C(=O)N(C)C1c1ccc(C#N)cc1C(=O)N[C@@H]1C[C@H]1N (some centres unmarked) [Example 4.7],< 1
6,CCOC(=O)C1=C(C)N(c2cccc(C(F)(F)F)c2)C(=O)N(C)C1c1ccc(C#N)cc1C(=O)N(C)CCN (centres unmarked) [Example 4.8],< 1
7,CCOC(=O)C1=C(C)N(c2cccc(C(F)(F)F)c2)C(=O)N(C)C1c1ccc(C#N)cc1C(=O)NCCNC (centres unmarked) [Example 4.9],< 1
8,CCOC(=O)C1=C(C)N(c2cccc(C(F)(F)F)c2)C(=O)N(C)C1c1ccc(C#N)cc1C(=O)N[C@H]1CCNC1 (some centres unmarked) [Example 4.10],1.2
9,CCOC(=O)C1=C(C)N(c2cccc(C(F)(F)F)c2)C(=O)N(C)C1c1ccc(C#N)cc1C(=O)N[C@@H]1CCNC1 (some centres unmarked) [Example 4.11],1.1
10,CCOC(=O)C1=C(C)N(c2cccc(C(F)(F)F)c2)C(=O)N(C)C1c1ccc(C#N)cc1C(=O)N1CC[C@@H](N)C1 (some centres unmarked) [Example 4.12],< 1
11,CCOC(=O)C1=C(C)N(c2cccc(C(F)(F)F)c2)C(=O)N(C)C1c1ccc(C#N)cc1C(=O)N1CC[C@H](N)C1 (some centres unmarked) [Example 4.13],< 1
12,CCOC(=O)C1=C(C)N(c2cccc(C(F)(F)F)c2)C(=O)N(C)C1c1ccc(C#N)cc1C(=O)N1CC[C@H](NC)C1 (some centres unmarked) [Example 4.16],< 1
13,CCOC(=O)C1=C(C)N(c2cccc(C(F)(F)F)c2)C(=O)N(C)C1c1ccc(C#N)cc1C(=O)N1CCNC(C)C1 (centres unmarked) [Example 4.17],2
14,CCOC(=O)C1=C(C)N(c2cccc(C(F)(F)F)c2)C(=O)N(C)C1c1ccc(C#N)cc1C(=O)NC1CCN(C)C1 (centres unmarked) [Example 4.18],1.3
15,"CC(=O)C1=C(C)N(c2cccc(C(F)(F)F)c2)C(=O)N(C)C1c1ccc(C#N)cc1-c1ccoc1 (centres unmarked) [Example 5, 4-[5-Acetyl-3,6-dimethyl-2-oxo-1-(3-trifluoromethyl-phenyl)-1,2,3,4-tetrahydro-pyrimidin-4-yl]-3-furan-3-yl-benzonitrile]",2.6
16,CC(=O)C1=C(C)N(c2cccc(C(F)(F)F)c2)C(=O)N(C)C1c1ccc(C#N)cc1-c1ccco1 (centres unmarked) [Example 5.1],1.9
17,CC(=O)C1=C(C)N(c2cccc(C(F)(F)F)c2)C(=O)N(C)C1c1ccc(C#N)cc1-c1ccn(C)n1 (centres unmarked) [Example 5.2],1.4
18,CC(=O)C1=C(C)N(c2cccc(C(F)(F)F)c2)C(=O)N(C)C1c1ccc(C#N)cc1-c1cnn(C)c1 (centres unmarked) [Example 5.3],1.1
19,CC(=O)C1=C(C)N(c2cccc(C(F)(F)F)c2)C(=O)N(C)C1c1ccc(C#N)cc1-c1ccn(C)c(=O)c1 (centres unmarked) [Example 5.4],< 1
20,CC(=O)C1=C(C)N(c2cccc(C(F)(F)F)c2)C(=O)N(C)C1c1ccc(C#N)cc1C1=CN(C(=O)OC(C)(C)C)CC1 (centres unmarked) [Example 5.5],5.3
21,"CC(=O)C1=C(C)N(c2cccc(C(F)(F)F)c2)C(=O)N(C)C1c1ccc(C#N)cc1C1=CCN(C(=O)OC(C)(C)C)CC1 (centres unmarked) [Example 5.6, 4-{2-[5-Acetyl-3,6-dimethyl-2-oxo-1-(3-trifluoromethyl-phenyl)-1,2,3,4-tetrahydro-pyrimidin-4-yl]-5-cyano-phenyl}-3,6-dihydro-2H-pyridine-1-carboxylic acid tert-butyl ester]",4.8
22,CC(=O)C1=C(C)N(c2cccc(C(F)(F)F)c2)C(=O)N(C)C1c1ccc(C#N)cc1C1=CCOCC1 (centres unmarked) [Example 5.7],< 1
23,CC(=O)C1=C(C)N(c2cccc(C(F)(F)F)c2)C(=O)N(C)C1c1ccc(C#N)cc1-c1cnco1 (centres unmarked) [Example 5.8],< 1
24,CC(=O)C1=C(C)N(c2cccc(C(F)(F)F)c2)C(=O)N(C)C1c1ccc(C#N)cc1-c1cccnc1 (centres unmarked) [Example 5.9],1.4
25,CC(=O)C1=C(C)N(c2cccc(C(F)(F)F)c2)C(=O)N(C)C1c1ccc(C#N)cc1-c1ccncc1 (centres unmarked) [Example 5.10],1.3

row,Compound,IC50 [nM]
1,CC(=O)C1=C(C)N(c2cccc(C(F)(F)F)c2)C(=O)N(C)C1c1ccc(C#N)cc1-c1ccc(=O)n(C)c1 (centres unmarked) [Example 5.11],< 1
2,CC(=O)C1=C(C)N(c2cccc(C(F)(F)F)c2)C(=O)N(C)C1c1ccc(C#N)cc1-c1ccc2c(cnn2C)c1 (centres unmarked) [Example 5.12],3
3,CC(=O)C1=C(C)N(c2cccc(C(F)(F)F)c2)C(=O)N(C)C1c1ccc(C#N)cc1-c1ccc2occc2c1 (centres unmarked) [Example 5.13],22.6
4,CC(=O)C1=C(C)N(c2cccc(C(F)(F)F)c2)C(=O)N(C)C1c1ccc(C#N)cc1-c1ccc2c(ccn2C)c1 (centres unmarked) [Example 5.14],5.7
5,CC(=O)C1=C(C)N(c2cccc(C(F)(F)F)c2)C(=O)N(C)C1c1ccc(C#N)cc1-c1cncc(F)c1 (centres unmarked) [Example 5.15],< 1
6,"CC(=O)C1=C(C)N(c2cccc(C(F)(F)F)c2)C(=O)N(C)C1c1ccc(C#N)cc1-c1nnco1 (centres unmarked) [Example 6, 4-[5-Acetyl-3,6-dimethyl-2-oxo-1-(3-trifluoromethyl-phenyl)-1,2,3,4-tetrahydro-pyrimidin-4-yl]-3-[1,3,4]oxadiazol-2-yl-benzonitrile]",< 1
7,"CC(=O)C1=C(C)N(c2cccc(C(F)(F)F)c2)C(=O)N(C)C1c1ccc(C#N)cc1-c1ncc(C)o1 (centres unmarked) [Example 7, 4-[5-Acetyl-3,6-dimethyl-2-oxo-1-(3-trifluoromethyl-phenyl)-1,2,3,4-tetrahydro-pyrimidin-4-yl]-3-(5-methyl-oxazol-2-yl)-benzonitrile]",< 1
8,"CC(=O)C1=C(C)N(c2cccc(C(F)(F)F)c2)C(=O)N(C)C1c1ccc(C#N)cc1-c1nc(C)no1 (centres unmarked) [Example 9, 4-[5-Acetyl-3,6-dimethyl-2-oxo-1-(3-trifluoromethyl-phenyl)-1,2,3,4-tetrahydro-pyrimidin-4-yl]-3-(5-methyl-[1,3,4]oxadiazol-2-yl)-]",< 1
9,"CC(=O)C1=C(C)N(c2cccc(C(F)(F)F)c2)C(=O)N(C)C1c1ccc(C#N)cc1C1=CCNCC1 (centres unmarked) [Example 10, 4-[5-Acetyl-3,6-dimethyl-2-oxo-1-(3-trifluoromethyl-phenyl)-1,2,3,4-tetrahydro-pyrimidin-4-yl]-3-(1,2,3,6-tetrahydro-pyridin-4-yl)-benzonitrile]",< 1
10,"CC(=O)C1=C(C)N(c2cccc(C(F)(F)F)c2)C(=O)NC1c1ccc(C#N)cc1-c1ccoc1 (centres unmarked) [Example 11, 4-[5-Acetyl-6-methyl-2-oxo-1-(3-trifluoromethyl-phenyl)-1,2,3,4-tetrahydro-pyrimidin-4-yl]-3-furan-3-yl-benzonitrile]",4.6
11,"CC(=O)C1=C(C)N(c2cccc(C(F)(F)F)c2)C(=O)N(C)[C@@H]1c1ccc(C#N)cc1C(N)=O [Example 13, 2-[(R)-5-Acetyl-3,6-dimethyl-2-oxo-1-(3-trifluoromethyl-phenyl)-1,2,3,4-tetrahydro-pyrimidin-4-yl]-5-cyano-benzamide]",< 1
12,CC(=O)C1=C(C)N(c2cccc(C(F)(F)F)c2)C(=O)N(C)[C@@H]1c1ccc(C#N)cc1C(=O)NC1CC1 [Example 13.2],< 1
13,CC(=O)C1=C(C)N(c2cccc(C(F)(F)F)c2)C(=O)N(C)[C@@H]1c1ccc(C#N)cc1C(=O)NCC#N [Example 13.3],< 1
14,"CCOC(=O)C1=C(C)N(c2cccc(C(F)(F)F)c2)C(=O)N(C)C1c1ccc(C#N)cc1-c1ccco1 (centres unmarked) [Example 14, 4-(4-Cyano-2-furan-2-yl-phenyl)-3,6-dimethyl-2-oxo-1-(3-trifluoromethyl-phenyl)-1,2,3,4-tetrahydro-pyrimidine-5-carboxylic acid ethyl ester]",3.7
15,CCOC(=O)C1=C(C)N(c2cccc(C(F)(F)F)c2)C(=O)N(C)C1c1ccc(C#N)cc1-c1ccoc1 (centres unmarked) [Example 14.1],3.2
16,CCOC(=O)C1=C(C)N(c2cccc(C(F)(F)F)c2)C(=O)N(C)C1c1ccc(C#N)cc1-c1cn[nH]c1 (centres unmarked) [Example 14.2],1.9
17,CCOC(=O)C1=C(C)N(c2cccc(C(F)(F)F)c2)C(=O)N(C)C1c1ccc(C#N)cc1-c1cnoc1 (centres unmarked) [Example 14.3],< 1
18,CCOC(=O)C1=C(C)N(c2cccc(C(F)(F)F)c2)C(=O)N(C)C1c1ccc(C#N)cc1C1=COCC1 (centres unmarked) [Example 14.4],1.9
19,CCOC(=O)C1=C(C)N(c2cccc(C(F)(F)F)c2)C(=O)N(C)C1c1ccc(C#N)cc1-c1cnn(C)c1 (centres unmarked) [Example 14.5],< 1
20,CCOC(=O)C1=C(C)N(c2cccc(C(F)(F)F)c2)C(=O)N(C)C1c1ccc(C#N)cc1-c1ccnn1C (centres unmarked) [Example 14.6],3.1
21,CCOC(=O)C1=C(C)N(c2cccc(C(F)(F)F)c2)C(=O)N(C)C1c1ccc(C#N)cc1-c1ccn(C)n1 (centres unmarked) [Example 14.7],2.4
22,CCOC(=O)C1=C(C)N(c2cccc(C(F)(F)F)c2)C(=O)N(C)C1c1ccc(C#N)cc1-c1ccn(C)c(=O)c1 (centres unmarked) [Example 14.9],< 1
23,"CCOC(=O)C1=C(C)N(c2cccc(C(F)(F)F)c2)C(=O)N(C)C1c1ccc(C#N)cc1C1=CCNCC1 (centres unmarked) [Example 15, 4-[4-Cyano-2-(1,2,3,6-tetrahydro-pyridin-4-yl)-phenyl]-3,6-dimethyl-2-oxo-1-(3-trifluoromethyl-phenyl)-1,2,3,4-tetrahydro-pyrimidine-5-carboxylic acid ethyl ester]",3
24,"COC(=O)c1cc(C#N)ccc1C1C(C(C)=O)=C(C)N(c2cccc(C(F)(F)F)c2)C(=O)N1C (centres unmarked) [Intermediate 5, 2-[5-Acetyl-3,6-dimethyl-2-oxo-1-(3-trifluoromethyl-phenyl)-1,2,3,4-tetrahydro-pyrimidin-4-yl]-5-cyano-benzoic acid methyl ester]",< 1
25,"CC(=O)C1=C(C)N(c2cccc(C(F)(F)F)c2)C(=O)N(C)C1c1ccc(C#N)cc1C(=O)O (centres unmarked) [Intermediate 6, 2-[5-Acetyl-3,6-dimethyl-2-oxo-1-(3-trifluoromethyl-phenyl)-1,2,3,4-tetrahydro-pyrimidin-4-yl]-5-cyano-benzoic acid]",3.93
